# Tests used:
# [1] = system: FBW7 and c-Jun mRNA in TBL3 cells; test: RT-qPCR of FBW7 and c-Jun mRNA in TBL3 cells; format: cell-based, bovine
# Procedure: (§1) Total cellular RNAs were extracted using an RNeasy Plus Mini Kit (Qiagen, Hilden, Germany) and parasite RNAs were extracted using the classical Trizol Protocol. cDNA synthesis was performed with the Reverse Transcriptase Superscript III (Invitrogen, CA, USA).
# (§2) Quantitative PCR amplification was performed in the ABI 7500 machine (Applied Biosystems, CA, USA) using the Sybr Green reagent (Applied Biosystems, CA, USA) using the primers listed in Table 5 below. The detection of a single product was verified by dissociation curve analysis. Relative quantities of mRNA were analyzed using the delta Ct method. The βactin qPCR was used for normalization. Table 5: qPCR primers
# [2] = system: Theileria parasites in TBL3-infected cells; test: Parasites quantification by DAPI staining in infected cells; format: cell-based, T.annulata; conditions: 72h, Buparvaquone 200ng/ml, Juglone 5 µM, PiB 1 µM
# Procedure: All infected bovine cell lines used in this study were previously described: TBL3 cells were derived from in vitro infection of the spontaneous bovine-B lymphosarcoma cell line, BL3, with Hissar stock of T.annulata. The TpMD409 lymphocyte cell line are infected with T. parva. The culture conditions of these cell lines were previously described by Moreau et al., 1999. Cells were cultured in RPMI 1640 (Gibco-BRL, Paisley, UK), supplemented with 10% heat-inactivated Fetal calf serum, 4mM L-Glutamine, 25mM HEPES, 10µM β-mercaptoethanol and 100µg/ml penicillin/streptomycin in a humidified 5%CO2 atmosphere at 37°C. HepG2, NIH/3T3 and MEF cells lines were cultured in DMEM (Gibco-BRL, Paisley, UK), supplemented with 10% heat-inactivated Fetal calf serum, 4mM L-Glutamine, 25 mM HEPES, 10µM β-mercaptoethanol and 100µg/ml penicillin/streptomycin in a humidified 5% CO2 atmosphere at 37°C. Cell numbers, as judged by Trypan Blue exclusion test, were determined by counting cells using a Countess automated cell counter (Invitrogen, CA, USA). The anti-parasite drug Buparvaquone (BW720c) was used at 200ng/ml for 72 hours. BW720c has no effect on growth of uninfected cells. […] Images of immunofluoresence staining were photographed with a fluorescent microscope (Leica Inverted 6000) and the number of parasites per cells was counted. […]
# [3] = system: parasite-infected cells (Theileria annulata - TBL3); test: Cell viability XTT assay, TBL3; format: cell-based, bovine
# Procedure: (§3) All infected bovine cell lines used in this study were previously described: TBL3 cells were derived from in vitro infection of the spontaneous bovine-B lymphosarcoma cell line, BL3, with Hissar stock of T.annulata. The TpMD409 lymphocyte cell line are infected with T. parva. The culture conditions of these cell lines were previously described by Moreau et al., 1999. Cells were cultured in RPMI 1640 (Gibco-BRL, Paisley, UK), supplemented with 10% heat-inactivated Fetal calf serum, 4mM L-Glutamine, 25mM HEPES, 10µM β-mercaptoethanol and 100µg/ml penicillin/streptomycin in a humidified 5%CO2 atmosphere at 37°C. HepG2, NIH/3T3 and MEF cells lines were cultured in DMEM (Gibco-BRL, Paisley, UK), supplemented with 10% heat-inactivated Fetal calf serum, 4mM L-Glutamine, 25 mM HEPES, 10µM β-mercaptoethanol and 100µg/ml penicillin/streptomycin in a humidified 5% CO2 atmosphere at 37°C. Cell numbers, as judged by Trypan Blue exclusion test, were determined by counting cells using a Countess automated cell counter (Invitrogen, CA, USA). The anti-parasite drug Buparvaquone (BW720c) was used at 200ng/ml for 72 hours. BW720c has no effect on growth of uninfected cells. […]
# HepG2 cells [4] = test: Soft agar colony forming assay, HepG2; format: cell-based, human; conditions: number of colonies per plate
# Procedure: as §3, with “HepG2, NIH/3T3 and MEF cells lines were cultured in DMEM (Gibco-BRL, Paisley, UK), supplemented with 10% heat-inactivated Fetal calf serum, 4mM L-Glutamine, 25 mM HEPES, 10µM β-mercaptoethanol and 100µg/ml penicillin/streptomycin in a humidified 5% CO2 atmosphere at 37°C.” left out, “USA).” for “USA). The anti-parasite drug Buparvaquone (BW720c) was used at 200ng/ml for 72 hours. BW720c has no effect on growth of uninfected cells.”
# (§4) A two-layer soft agar culture system was used. […] Cultures were incubated in humidified 37°C incubators with an atmosphere of 5%CO2 in air, and control plates were monitored for growth using a microscope. At the time of maximum colony formation (10 days in culture), final colony numbers were counted manually after fixation a staining with 0.005% Crystal Violet (Sigma, Ref.: C3886).
# TpMD409 cells = test: Soft agar colony forming assay, TpMD409; format: cell-based, bovine; conditions: colonies counted 10 days after plating
# Procedure: as §3, with “HepG2, NIH/3T3 and MEF cells lines were cultured in DMEM (Gibco-BRL, Paisley, UK), supplemented with 10% heat-inactivated Fetal calf serum, 4mM L-Glutamine, 25 mM HEPES, 10µM β-mercaptoethanol and 100µg/ml penicillin/streptomycin in a humidified 5% CO2 atmosphere at 37°C.” left out, “USA).” for “USA). The anti-parasite drug Buparvaquone (BW720c) was used at 200ng/ml for 72 hours. BW720c has no effect on growth of uninfected cells.”
# as §4
# [5] = system: non-parasitized BL3 cells; test: Cell proliferation, live cell count after trypan blue exclusion, BL3; format: cell-based, bovine; conditions: BL3 / uninfected cells
# Procedure: (§5) All infected bovine cell lines used in this study were previously described: TBL3 cells were derived from in vitro infection of the spontaneous bovine-B lymphosarcoma cell line, BL3, with Hissar stock of T.annulata. The TpMD409 lymphocyte cell line are infected with T. parva. The culture conditions of these cell lines were previously described by Moreau et al., 1999. Cells were cultured in RPMI 1640 (Gibco-BRL, Paisley, UK), supplemented with 10% heat-inactivated Fetal calf serum, 4mM L-Glutamine, 25mM HEPES, 10µM β-mercaptoethanol and 100µg/ml penicillin/streptomycin in a humidified 5%CO2 atmosphere at 37°C. HepG2, NIH/3T3 and MEF cells lines were cultured in DMEM (Gibco-BRL, Paisley, UK), supplemented with 10% heat-inactivated Fetal calf serum, 4mM L-Glutamine, 25 mM HEPES, 10µM β-mercaptoethanol and 100µg/ml penicillin/streptomycin in a humidified 5% CO2 atmosphere at 37°C. Cell numbers, as judged by Trypan Blue exclusion test, were determined by counting cells using a Countess automated cell counter (Invitrogen, CA, USA). The anti-parasite drug Buparvaquone (BW720c) was used at 200ng/ml for 72 hours. BW720c has no effect on growth of uninfected cells.
# Cells were treated with either Juglone at 5 µM resuspended in Ethanol (Sigma, St Louis, MO, Ref.: H47003), or PiB at 1 µM resuspended in DMSO (Sigma, Ref.: B7688), or Dimethyloxalylglycine DMOG at 0.5 mM resuspended in DMSO (Tebu-bio, MO, USA).
# HepG2 cells [6] = test: Cell viability XTT assay, HepG2; format: cell-based, human; conditions: 72h
# Procedure: as §5
# 1×10^4 cells were plated in 96-well plates in triplicate and Buparvaquone, Juglone or PiB was added. […]
# TaPIN transcripts = test: Quantitative PCR of TaPIN transcripts in T.annulata-infected cells; format: cell-based
# Procedure: as §1, §2
# [7] = system: Parasite-infected TBL3 cells; test: Soft agar colony forming assay, TBL3; format: cell-based, bovine; conditions: colonies counted 10 days after plating
# Procedure: as §3, with “HepG2, NIH/3T3 and MEF cells lines were cultured in DMEM (Gibco-BRL, Paisley, UK), supplemented with 10% heat-inactivated Fetal calf serum, 4mM L-Glutamine, 25 mM HEPES, 10µM β-mercaptoethanol and 100µg/ml penicillin/streptomycin in a humidified 5% CO2 atmosphere at 37°C.” left out, “USA).” for “USA). The anti-parasite drug Buparvaquone (BW720c) was used at 200ng/ml for 72 hours. BW720c has no effect on growth of uninfected cells.”
# as §4
SMILES,mRNA expression [1],parasites in TBL3 cells [2],"viability of parasite-infected cells ([3]; TBL3, 72h, XTT assay)",soft agar colony-forming potential of HepG2 cells (HepG2 cells [4]),"transformed phenotype, colonies in soft agar (TpMD409 cells)",proliferation of non-parasitized cells [5],viability of HepG2 cells (HepG2 cells [6]),TaPIN transcripts (TaPIN transcripts),"transformed phenotype, colonies in soft agar [7]","host cell viability ([3]; PiB, infected cell line not given)"
"CC(C)(C)C1CCC(CC2=C(O)C(=O)c3ccccc3C2=O)CC1 (stereo not drawn) [Buparvaquone, 2-((4-tert-butylcyclohexyl)methyl)-3-hydroxy-1,4-naphthoquinone]",no effect,eliminate parasites,decreased the viability,decreased,reversed the transformed phenotype,no effect,reduce the viability,lost,reversed the transformed phenotype,
"CCOC(=O)CN1C(=O)c2ccc3c4c(ccc(c24)C1=O)C(=O)N(CC(=O)OCC)C3=O [PiB, benzo[Imn][3,8]phenanthroline-2,7-diacetic acid, 1,3,6,8-tetrahydro-1,3,6,8-tetraoxo-, diethyl ester]",no effect,eliminate parasites,,,reduced,no effect,,,reduced,reduced
